According to patent publication US8722849B2, “Polypeptides” (Novo Nordisk A/S, priority 2011, dated 2014):
≈ marks a conversion by molar mass, not a printed value. Like-named read-outs stand apart in the source and are kept apart here. Starred links: 1 amine or outer side, 2 acyl side, 3 side chain; linkers in the order of their positions; H or OH if unused. Positions of bridges follow the written chain, without caps; N, C: chain ends. Residues, ends and D or L forms follow the SMILES beside them. *: point of attachment. C20 diacid = O=C(O)CCCCCCCCCCCCCCCCCCC(=O)*; γGlu = O=C(O)[C@H](CCC(=O)[*:2])N[*:1]; AEEA = NCCOCCOCC(=O)O

Legend:
[1] = biological target: T1, human amylin receptor (amylin 3(a) receptor: human calcitonin receptor + RAMP-3) (Homo sapiens, UniProt O60896+P30988); experiment: Assay (II)a functional CRE-luciferase assay, human amylin receptor; assay type: cell-based
T1 construct: expressed in transfected cells; host or cells: BHK570
T1 sequence (P30988 25-474): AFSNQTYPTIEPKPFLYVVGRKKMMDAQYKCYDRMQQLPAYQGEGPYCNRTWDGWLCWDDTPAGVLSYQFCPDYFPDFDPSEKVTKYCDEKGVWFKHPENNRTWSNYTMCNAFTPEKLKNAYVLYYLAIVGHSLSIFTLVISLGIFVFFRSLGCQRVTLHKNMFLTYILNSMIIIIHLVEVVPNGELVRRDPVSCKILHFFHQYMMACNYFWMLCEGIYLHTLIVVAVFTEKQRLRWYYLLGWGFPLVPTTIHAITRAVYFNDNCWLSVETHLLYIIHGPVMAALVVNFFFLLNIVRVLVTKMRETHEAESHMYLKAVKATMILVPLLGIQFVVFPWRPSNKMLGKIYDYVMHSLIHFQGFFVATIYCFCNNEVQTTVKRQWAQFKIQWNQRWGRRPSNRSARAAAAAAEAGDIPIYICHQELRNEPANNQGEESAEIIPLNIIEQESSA
T1 sequence (O60896 24-148 partner): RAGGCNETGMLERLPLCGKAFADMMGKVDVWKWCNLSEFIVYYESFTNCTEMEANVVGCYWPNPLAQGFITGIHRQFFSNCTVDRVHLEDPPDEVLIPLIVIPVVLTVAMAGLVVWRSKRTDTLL
Excerpt: (§1) 1. Luciferase Assay Outline
(§2) Activation of calcitonin and amylin (coexpression of calcitonin receptor and receptor activity modifying proteins (RAMP)) receptors lead to increased intracellular concentrations of cAMP. Consequently, transcription is activated by promoters containing multiple copies of the cAMP response element (CRE). It is thus possible to measure amylin activity by the use of a CRE luciferase reporter gene introduced into BHK cells also expressing calcitonin or amylin receptors.
(§3) A BHK570 cell line was stably transfected with the human calcitonin receptor and a CRE-responsive luciferase reporter gene. The cell line was further transfected with RAMP-3, using standard methods. This turns the calcitonin receptor into an amylin 3(a) receptor. Methotrexate, Neomycin, and Hygromycin are selection markers for luciferase, the calcitonin receptor, and RAMP-3, respectively.
(§4) To perform activity assays, BHK calcitonin (a) receptor- or amylin 3(a)-receptor/CRE-luc cells were seeded in white 96 well culture plates at a density of about 20.000 cells/well. […] Further, 50 μl/well of standard or sample in assay buffer were added. After 3 hours incubation at 37° C. and 5% CO2, the assay medium with standard or sample were removed and replaced by 100 μl/well PBS. Further, 100 μl/well LucLite™ was added. The plates were sealed and incubated at room temperature for 30 minutes. Finally, luminescence was measured on a TopCounter (Packard) in SPC (single photon counting) mode.

[2] = biological target: T2, human calcitonin receptor (Homo sapiens, UniProt P30988); experiment: Assay (II)a functional CRE-luciferase assay, human calcitonin receptor; assay type: cell-based
T2 construct: expressed in transfected cells; host or cells: BHK570
T2 sequence (P30988 25-474): T1 sequence (P30988 25-474)
Excerpt: as §1, §2, §3, §4

[3] = Assay (IV) determination of solubility; assay type: physicochemical
In short: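 Polypeptide in water (~500 nmol/ml stock) was mixed 1:1 with 100 mM buffers from pH 3.0 to 8.0 (glycylglycine pH 3.0–5.0; bistrispropane pH 6.0–8.0). After 18 hours at room temperature, samples were centrifuged and the polypeptide remaining in solution was quantified by HPLC.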

[4] = Table 2, BHK amylin 3(a)-receptor/CRE-luc cells
[5] = Table 7, human calcitonin (CTa) receptor
[6] = bistrispropane buffer, pH 6, pH 6.0, read-out: Solubility pH 6.0
[7] = bistrispropane buffer, pH 7.5, pH 7.5, read-out: Solubility pH 7.5
[8] = bistrispropane buffer, pH 8, pH 8.0, read-out: Solubility pH 8.0
[9] = glycylglycine buffer, pH 3, pH 3.0, read-out: Solubility pH 3.0
[10] = glycylglycine buffer, pH 4, pH 4.0, 18 hours at room temperature, Table 2, read-out: Solubility pH 4.0
[11] = glycylglycine buffer, pH 4, pH 4.0, read-out: Solubility pH 4.0

CC[C@H](C)[C@H](NC(=O)[C@@H]1CCCN1C(=O)CNC(=O)[C@H](Cc1ccccc1)NC(=O)[C@H](CCC(N)=O)NC(=O)[C@H](CCC(N)=O)NC(=O)[C@H](CO)NC(=O)[C@H](CO)NC(=O)[C@H](CCCNC(=N)N)NC(=O)[C@H](Cc1c[nH]cn1)NC(=O)[C@H](CC(C)C)NC(=O)[C@H](Cc1ccccc1)NC(=O)[C@H](CCC(=O)O)NC(=O)[C@H](C)NC(=O)[C@H](CC(C)C)NC(=O)[C@H](CCCNC(=N)N)NC(=O)[C@H](CCC(N)=O)NC(=O)[C@@H](NC(=O)[C@H](C)NC(=O)[C@@H]1CSSC[C@H](NC(=O)CC[C@H](NC(=O)CCCCCCCCCCCCCCCCCCC(=O)O)C(=O)O)C(=O)NCC(=O)N[C@@H]([C@@H](C)O)C(=O)N[C@@H](C)C(=O)N[C@@H]([C@@H](C)O)C(=O)N1)[C@@H](C)O)C(=O)N[C@@H](CC(C)C)C(=O)N1CCC[C@H]1C(=O)N1CCC[C@H]1C(=O)N[C@H](C(=O)N[C@@H](CCC(=O)O)C(=O)N[C@H](C(=O)NCC(=O)N[C@@H](CO)C(=O)NCC(=O)N[C@H](C(=O)N[C@@H](Cc1ccc(O)cc1)C(N)=O)[C@@H](C)O)C(C)C)[C@@H](C)O [Example 4, N-alpha-[(S)-4-Carboxy-4-(19-carboxynonadecanoylamino)butyryl]-[des1,Gly3,Glu14,His17,Arg18,Gln21,Gln22,Glu31,Gly35]-pramlintide] ({C20 diacid-γGlu}-CGTATCATQRLAEFLHRSSQQFGPILPPTEVGSGTY-NH2; disulfide 1-6 (inferred))
EC50 [1, 4]: 0.253 nM | EC50 [2, 5]: 0.284 nM | solubility at 18 h [3, 6]: 42 µM (≈ 180 µg/mL) | solubility at 18 h ([3]; bistrispropane buffer, pH 6.5, pH 6.5, read-out: Solubility pH 6.5): 82 µM (≈ 351 µg/mL) | solubility at 18 h ([3]; bistrispropane buffer, pH 7, pH 7.0, 18 hours at room temperature, Table 3, read-out: Solubility pH 7.0): 146 µM (≈ 624 µg/mL) | solubility at 18 h ([3]; bistrispropane buffer, pH 7, pH 7.0, read-out: Solubility pH 7.0): 146 µM (≈ 624 µg/mL) | solubility at 18 h [3, 7]: 183 µM (≈ 782 µg/mL) | solubility at 18 h [3, 8]: 190 µM (≈ 812 µg/mL) | solubility at 18 h [3, 9]: > 200 µM | solubility at 18 h [3, 10]: 120 µM (≈ 513 µg/mL) | solubility at 18 h [3, 11]: 120 µM (≈ 513 µg/mL)

CC[C@H](C)[C@H](NC(=O)[C@@H]1CCCN1C(=O)CNC(=O)[C@H](Cc1ccccc1)NC(=O)[C@H](CC(N)=O)NC(=O)[C@H](CCCCN)NC(=O)[C@H](CO)NC(=O)[C@H](CO)NC(=O)[C@H](Cc1c[nH]cn1)NC(=O)[C@H](Cc1c[nH]cn1)NC(=O)[C@H](CC(C)C)NC(=O)[C@H](Cc1ccccc1)NC(=O)[C@H](CCC(=O)O)NC(=O)[C@H](C)NC(=O)[C@H](CC(C)C)NC(=O)[C@H](CCCNC(=N)N)NC(=O)[C@H](CCC(N)=O)NC(=O)[C@@H](NC(=O)[C@H](C)NC(=O)[C@@H]1CSSC[C@H](NC(=O)[C@H](CCCCN)NC(=O)COCCOCCNC(=O)COCCOCCNC(=O)CC[C@H](NC(=O)CCCCCCCCCCCCCCCCCCC(=O)O)C(=O)O)C(=O)N[C@@H](CC(N)=O)C(=O)N[C@@H]([C@@H](C)O)C(=O)N[C@@H](C)C(=O)N[C@@H]([C@@H](C)O)C(=O)N1)[C@@H](C)O)C(=O)N[C@@H](CC(C)C)C(=O)N1CCC[C@H]1C(=O)N1CCC[C@H]1C(=O)N[C@H](C(=O)N[C@@H](CC(N)=O)C(=O)N[C@H](C(=O)NCC(=O)N[C@@H](CO)C(=O)N[C@@H](CC(N)=O)C(=O)N[C@H](C(=O)N1CCC[C@H]1C(N)=O)[C@@H](C)O)C(C)C)[C@@H](C)O [Example 168, N-alpha-[2-(2-{2-[2-(2-{2-[(S)-4-Carboxy-4-(19-carboxyheptadecanoylamino)butyrylamino]ethoxy}ethoxy)acetylamino]ethoxy}ethoxy)acetyl]-[Glu14,His17,Lys21,Pro37]-pramlintide] ({C20 diacid-γGlu-AEEA-AEEA}-KCNTATCATQRLAEFLHHSSKNFGPILPPTNVGSNTP-NH2; disulfide 2-7)
EC50 [1, 4]: 0.071 nM | EC50 ([1]; Table 3, BHK amylin 3(a)-receptor/CRE-luc cells): 0.071 nM | EC50 ([1]; Table 4): 0.071 nM | EC50 ([1]; Table 6, human amylin receptor): 0.071 nM | EC50 ([1]; Table 7, human amylin receptor): 0.071 nM | EC50 ([1]; Table 11): 0.071 nM | EC50 [2, 5]: 0.085 nM | EC50 ([2]; Table 11, read-out: CTa receptor human EC50): 0.085 nM | solubility ([3]; pH 3, pH 3.0, read-out: Solubility pH 3.0): > 200 µM | solubility ([3]; pH 4, pH 4.0, 18 hours at room temperature, Table 2, read-out: Solubility pH 4.0): > 200 µM | solubility ([3]; pH 4, pH 4.0, read-out: Solubility pH 4.0): > 200 µM | solubility ([3]; pH 5, pH 5.0, read-out: Solubility pH 5.0): > 200 µM | solubility ([3]; pH 6, pH 6.0, read-out: Solubility pH 6.0): > 200 µM | solubility ([3]; pH 6.5, pH 6.5, read-out: Solubility pH 6.5): > 200 µM | solubility ([3]; pH 7, pH 7.0, 18 hours at room temperature, Table 3, read-out: Solubility pH 7.0): > 200 µM | solubility ([3]; pH 7, pH 7.0, read-out: Solubility pH 7.0): > 200 µM | solubility ([3]; pH 7.5, pH 7.5, read-out: Solubility pH 7.5): > 200 µM | solubility ([3]; pH 8, pH 8.0, read-out: Solubility pH 8.0): > 200 µM

CC(C)C[C@H](NC(=O)[C@H](CCCNC(=N)N)NC(=O)[C@H](CCC(N)=O)NC(=O)[C@@H](NC(=O)[C@H](C)NC(=O)[C@@H]1CSSC[C@H](NC(=O)[C@H](Cc2cnc[nH]2)NC(=O)CC[C@H](NC(=O)CCCCCCCCCCCCCCCCCCC(=O)O)C(=O)O)C(=O)N[C@@H](CC(N)=O)C(=O)N[C@@H]([C@@H](C)O)C(=O)N[C@@H](C)C(=O)N[C@@H]([C@@H](C)O)C(=O)N1)[C@@H](C)O)C(=O)N[C@@H](C)C(=O)N[C@@H](CCC(=O)O)C(=O)N[C@@H](Cc1ccccc1)C(=O)N[C@@H](CC(C)C)C(=O)N[C@@H](Cc1cnc[nH]1)C(=O)N[C@@H](CCCNC(=N)N)C(=O)N[C@@H](CO)C(=O)N[C@@H](CO)C(=O)N[C@@H](CC(N)=O)C(=O)N[C@@H](CC(N)=O)C(=O)N[C@@H](Cc1ccccc1)C(=O)NCC(=O)N[C@@H](C)C(=O)N1CCC[C@H]1C(=O)N[C@@H](CC(C)C)C(=O)N[C@@H](CO)C(=O)N[C@@H](CO)C(=O)N[C@H](C(=O)N[C@@H](CC(N)=O)C(=O)N[C@H](C(=O)NCC(=O)N[C@@H](CO)C(=O)N[C@@H](CC(N)=O)C(=O)N[C@H](C(=O)N[C@@H](Cc1ccc(O)cc1)C(N)=O)[C@@H](C)O)C(C)C)[C@@H](C)O [Example 6, N-alpha-[(S)-4-Carboxy-4-(19-carboxynonadecanoylamino)butyryl]-[His1,Glu14,His17,Arg18,Ala25,Pro26,Ser28,Ser29]-pramlintide] ({C20 diacid-γGlu}-HCNTATCATQRLAEFLHRSSNNFGAPLSSTNVGSNTY-NH2; disulfide 2-7)
EC50 [1, 4]: 0.115 nM | EC50 [2, 5]: 0.24 nM | solubility at 18 h [3, 6]: 12 µM (≈ 53.1 µg/mL) | solubility at 18 h [3, 7]: 18 µM (≈ 79.6 µg/mL) | solubility at 18 h [3, 8]: 48 µM (≈ 212 µg/mL) | solubility at 18 h [3, 9]: > 200 µM | solubility at 18 h [3, 10]: 163 µM (≈ 721 µg/mL) | solubility at 18 h [3, 11]: 163 µM (≈ 721 µg/mL) | solubility at 18 h ([3]; glycylglycine buffer, pH 5, pH 5.0, read-out: Solubility pH 5.0): 168 µM (≈ 743 µg/mL) | solubility at 18 h ([3]; pH 6.5, read-out: Solubility pH 6.5): 4 µM (≈ 17.7 µg/mL) | solubility at 18 h ([3]; pH 7.0, read-out: Solubility pH 7.0): 7 µM (≈ 31 µg/mL)
